Data reported in patent US9580487B2, “Method of treating stomach or bowel-related disorders by administering glucagon-like-peptide-2 (GLP-2) analogues” (Zealand Pharma A/S, priority 2005, dated 2017).

What was measured:
TNF-α = assay: Small intestinal tissue content of TNF-α (ELISA) in rats with indomethacin-induced inflammation; assay type: in vivo; details: prednisolone 10 mg/kg alone
Experimental: Male Sprague Dawley rats were treated with vehicle (saline; group 1) or indomethacin (7 mg/kg s.c., once daily for two days; groups 2-7). […] On day 3, rats were sacrificed and upon necropsy, the small intestine was divided into three segments of equal length corresponding to 1) duodenum and proximal jejunum, 2) mid and distal jejunum and 3) ileum. Samples were immediately snap-frozen in liquid N2 and stored at −80° C. until analysis. Homogenization and extraction of cellular protein from small intestinal segments was performed according to the following procedure: Tissue segments were weighed and added a volume of 1.5 ml per gram tissue ice-cold (4° C.) extraction buffer (10 mM Tris-HCl (Sigma) and 1 mM EDTA (J. T. Baker), (pH 7.6) with 0.05% sodium azide (Fluka), 1% Tween-80 (Fluka), 2 mM phenylmethylsulfonyl fluoride (PMSF, Fluka) and 1 μg/ml of each of the protease inhibitors aprotinin, leupeptin and pepstatin A (Roche Diagnostics)). The tissue was cut into small bits with a pair of scissors and homogenized three times for 20 seconds (IKA UltraTurrax T25 homogenizer, Janke & Kunkel) at 9500 rpm with intermittent cooling on ice for 30 seconds. The homogenate was centrifuged at 20.000×g for 30 minutes at 4° C., the supernatant was collected and stored at −20° C. until analysis for TNF-α small intestinal protein extractions were analyzed for TNF-α using a commercially available ELISA kit according to the manufacturer's instructions (Rat Tumor Necrosis Factor-α UltraSensitive ELISA kit, Biosource International Inc.). The assay has a detection limit of 0.7 pg/ml. Protein extractions were analyzed for total protein content using a commercially available assay (DC protein assay, Bio-Rad Laboratories Ltd.). Small intestinal tissue levels of TNF-α were expressed relative to total protein. […] Values are means±SEM. * P<0.05 vs. indomethacin (group 2).
At sacrifice, however the small intestine was separated into three segments of equal length (proximal, mid and distal). TNF-α concentrations were measured in each of the individual segments using a commercially available ELISA kit.

[1] = test system: male Sprague Dawley rats treated with indomethacin; assay: Indomethacin-induced small intestinal ulcers (model of Crohn's disease), extent of ulceration; assay type: in vivo; details: prednisolone 10 mg/kg vs indomethacin alone
Experimental: FIG. 13 is a graph illustrating the effect of compound 1848 (SEQ ID NO:36) on small intestinal ulcers induced by indomethacin. Male Sprague Dawley rats were treated with vehicle (saline; group 1) or indomethacin (7 mg/kg s.c., once daily for two days; groups 2-7). Indomethacin was given alone (group 2) or in combination with prednisolone (10 mg/kg s.c.; group 3) or with 8, 40, or 200 nmol/kg compound 1848 (SEQ ID NO:36) s.c. […] (groups 4-6). Finally, one group of rats was treated with combination treatment of prednisolone (10 mg/kg s.c.) and compound 1848 (SEQ ID NO:36), 200 nmol/kg s.c. once daily (group 7). Treatment with compound 1848 (SEQ ID NO:36) was initiated 4 days prior to indomethacin and continued during the two days of indomethacin treatment. On day 3, rats were sacrificed and upon necropsy, the small intestine was gently flushed with 10% formalin and filled with formalin for a period of 5 minutes, after which the intestine was cut open along the antimesenteric margin and suspended on a polypropylene plate. Any remaining intestinal contents were carefully removed with a pair of tweezers. After fixation for another 24 hours at room temperature, the tissue was rinsed in Milli-Q water and surface-stained for 20 minutes with Alcian Green 3BX (Chroma) prepared as a 0.5% solution in 1% acetic acid (Bie & Berntsen). After removal of excess staining solution with Milli-Q water the tissue preparation was transferred to 70% alcohol and analyzed using a stereomicroscope at low magnification (×7). Starting at the pylorus, the small intestine was scanned and the shape (circular vs. linear) and size (circular ulcers: diameter, linear ulcers: length×width) of all ulcers was measured using a standard ruler (resolution: 0.5 mm). An ulcer was defined as an area, which lacked epithelial surface. In healing ulcers only the area that still lacked epithelial surface was regarded an ulcer even if the villus structure was still missing in a larger area. All analysis was performed in a blinded manner. […] Treatment with prednisolone caused a significant reduction in the extent of ulceration by app. 29%. […] Values are means±SEM. * P<0.05 vs. indomethacin (group 2). ^#P<0.05 vs. prednisolone (group 3).
Crohn's disease is a chronic disease that causes episodic inflammation of the small intestine. The effect of the GLP-2 analogue 1848 (SEQ ID NO:36) on small intestinal inflammation in an indomethacin-induced model of Crohn's disease was investigated. We have previously shown that administration of indomethacin (s.c, once daily for 2 days) induces small intestinal inflammation characterized by ulcerations and, increases in the pro-inflammatory cytokine, tumour necrosis factor alpha (TNF-α).
To determine the effect of ZP1848 (SEQ ID NO:36) on ulceration 1848 (SEQ ID NO:36) (8, 40 and 200 nmol/kg, s.c, twice daily (9:00 and 16:00)) was given for 4 days prior to the first dose of indomethacin and for an additional two days together with indomethacin. The corticosteroid, prednisolone (10 mg/kg, p.o) was used as a positive control since corticosteroids are commonly used in the treatment of active inflammation in Crohn's disease. In addition a group of animals were given both 1848 (SEQ ID NO:36) (200 nmol/kg) and prednisolone to determine the effects of a combination treatment. Twenty four hours after the last dose of 1848 (SEQ ID NO:36) had been given the animals were sacrificed the small intestine was gently flushed clean and fixed. To determine the extent of ulceration the intestine was cut open along the antimesenteric margin, suspended on a polypropylene plate and surface-stained with Alcian Green 3BX. Starting at the pylorus, the small intestine was scanned and the shape (circular vs. linear) and size (circular ulcers: diameter, linear ulcers: length×width) of all ulcers was measured using a standard ruler (resolution: 0.5 mm). An ulcer was defined as an area, which lacked epithelial surface. […]

[2] = test system: colonic neoplasms in mice; details: cited from earlier work
[3] = in vivo; cited from earlier work

Row | Molecule | Tissue levels of TNF-α, all 3 segments (TNF-α) | Reduction in the extent of ulceration [1] [%] | Growth of colonic neoplasms [2] | half life [3]
1 | C[C@]12C=CC(=O)C=C1CC[C@@H]1[C@@H]2[C@@H](O)C[C@@]2(C)[C@H]1CC[C@]2(O)C(=O)CO [prednisolone, reference compound] | did not significantly affect tissue levels of TNF-α | ~29 |  | 
2 | H-His-Ala-Asp-Gly-Ser-Phe-Ser-Asp-Glu-Met-Asn-Thr-Ile-Leu-Asp-Asn-Leu-Ala-Ala-Arg-Asp-Phe-Ile-Asn-Trp-Leu-Ile-Gln-Thr-Lys-Ile-Thr-Asp-OH [GLP-2] |  |  | accelerate the growth of colonic neoplasms in mice | about 7 minutes
